Source: US20080207522A1, “Antimicrobial Peptides” (priority 2004, published 2008)
Ends that are not written are not given here.

Tests used:
[1] = tested on: Salmonella enterica ssp. Typhimurium; settings: ssp. Typhimurium
Experimental: (§1) Minimal inhibitory concentration (MIC) determination. The MICs of the peptides were measured using a modified broth microdilution method in Mueller Hinton (MH) medium. Wu et al., J. Biol. Chem. 274: 29-35, 1999. Briefly, the peptides were dissolved and stored in glass vials. The assay was performed in sterile 96-well polypropylene microtitre plates were used. Serial dilutions of the peptides to be assayed were performed in 0.01% acetic acid (Fisher) containing 0.2% bovine serum albumin (Boehringer Mannheim GmbH) at 10× the desired final concentration. Ten microlitres of the 10× peptides were added to each well of a 96-well polypropylene plate containing 90 μl of MH media per well. Bacteria were added to the plate from an overnight culture at 2-7×10^5 colony forming units/ml and incubated over night at 37° C. The MIC was taken as the concentration at which no growth was observed.
(§2) Strains. For the killing assay a mini-Tn5-lux mutant in Pseudomonas aeruginosa H103 was used. The strain is called H1001 and contains a fliC::luxCDABE transcriptional fusion resulting in constitutive expression of luciferase. The bacterial strains used for the antimicrobial activity assays included Escherichia coli UB1005 (F-, nalA37, metB1), a wild-type Salmonella enterica ssp. Typhimurium (S. Typhimurium), wild-type Pseudomonas aeruginosa PAO1 strain H103, Enterococcus faecalis ATCC29212, Staphylococcus aureus ATCC25923, and a clinical isolate of Staphylococcus epidermidis obtained from Dr. D. Speert (Department of Medicine, University of British Columbia). Antifungal activity was tested using a lab isolate of Candida albicans obtained from Dr. B. Dill (Department of Microbiology and Immunology, University of British Columbia).
(§3) In addition, the parent peptide Bac2A was included in these studies as a standard. The minimal inhibitory concentrations (MIC) were determined for the important medical pathogens Pseudomonas aeruginosa, Escherichia coli, Salmonella typhimurium, Staphylococcus aureus, Staphylococcus epidermidis, Enterococcus faecaelis, and the yeast Candida albicans in Mueller-Hinton media.

[2] = tested on: Pseudomonas aeruginosa PAO1 strain H103; settings: PAO1
Experimental: as §1, §2, §3

[3] = tested on: Enterococcus faecalis ATCC29212; settings: ATCC29212
Experimental: as §1, §2, §3

[4] = tested on: Staphylococcus epidermidis
Experimental: as §1, §2, §3

[5] = tested on: Candida albicans
Experimental: as §1, §2, §3

[6] = tested on: Staphylococcus aureus ATCC25923; settings: ATCC25923
Experimental: as §1, §2, §3

[7] = tested on: Pseudomonas aeruginosa strain H1001; experiment: Assay for the cleaved (free, soluble) peptides from cellulose support, luminescence killing assay; type: cell-based; parameters: key: 1: Peptides showing stronger killing than Bac2A at a 4 to 8-fold higher dilution; Peptides showing stronger killing compared to that of Bac2A at a 4-fold higher dilution; 3: Peptides similar to Bac2A; 4: Peptides similar to Bac2A at the highest concentration but demonstrating weaker killing at a 2-fold dilution; 5: Peptides giving very weak or no killing at a 2-fold dilution; 6: Peptides with weak killing activity at the highest concentration; settings: free (cleaved) peptides, killing relative to Bac2A
Outline: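 Cellulose-synthesized peptides (amidated C-terminus, two β-alanines) cleaved by ammonia, released from punched spots 30 min at 37 °C, then serially diluted. P. aeruginosa H1001 (constitutive fliC::luxCDABE) overnight culture diluted 1:500 in LB or 100 mM Tris pH 7.3/20 mM glucose. Killing followed as time-dependent luminescence loss at 37 °C.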

[8] = tested on: Pseudomonas aeruginosa strain H1001 fliC::luxCDABE; experiment: Luminescence-based assay for the non-cleaved (bound) peptides on cellulose membranes; type: cell-based; settings: for Luminescence at the given time in minutes: 0 / Luminescence at the given time in minutes: 20 / Luminescence at the given time in minutes: 40 / Luminescence at the given time in minutes: 60 / Luminescence at the given time in minutes: 80 / Luminescence at the given time in minutes: 100 / Luminescence at the given time in minutes: 120 / Luminescence at the given time in minutes: 180 / Luminescence at the given time in minutes: 240: cellulose-bound peptide; for Luminescence at the given time in minutes: 0: 0 min; for Luminescence at the given time in minutes: 20: 20 min; for Luminescence at the given time in minutes: 40: 40 min; for Luminescence at the given time in minutes: 60: 60 min; for Luminescence at the given time in minutes: 80: 80 min; for Luminescence at the given time in minutes: 100: 100 min; for Luminescence at the given time in minutes: 120: 120 min; for Luminescence at the given time in minutes: 180: 180 min; for Luminescence at the given time in minutes: 240: 240 min; for Activity Class bound: uncleaved cellulose-bound peptides
Outline: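 Peptides remained bound to cellulose spots, which were ethanol-washed and equilibrated in 100 mM Tris pH 7.3. Constitutively lux-expressing P. aeruginosa (OD600 0.35 culture diluted 1:25) added in 10 mM Tris-HCl pH 7.3, 20 mM glucose at 37° C. Luminescence (RLU) followed over 14 time points; peptides binned into six activity classes.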

Row | Substance | MIC S. Typhim. [1] [µg/mL] | MIC P. aerug [2] [µg/mL] | MIC E. faecalis [3] [µg/mL] | MIC S. epi. [4] [µg/mL] | MIC C. albicans [5] [µg/mL] | MIC S. aureus [6] [µg/mL] | Activity Class Soluble [7] | Luminescence at the given time in minutes: 0 [8] [RLU] | Luminescence at the given time in minutes: 20 [8] [RLU] | Luminescence at the given time in minutes: 40 [8] [RLU] | Luminescence at the given time in minutes: 60 [8] [RLU] | Luminescence at the given time in minutes: 80 [8] [RLU] | Luminescence at the given time in minutes: 100 [8] [RLU] | Luminescence at the given time in minutes: 120 [8] [RLU] | Luminescence at the given time in minutes: 180 [8] [RLU] | Luminescence at the given time in minutes: 240 [8] [RLU] | Activity Class bound [8] | MIC P. aeruginosa [2] [µg/mL]
1 | GLARIVVIRVAR-NH2 (C-terminus assumed) [Bac206] | 63 | 125 | 31 | 16 | 125 | 63 | – | – | – | – | – | – | – | – | – | – | – | –
2 | KIWVIRWR-NH2 (C-terminus assumed) [Bac434] | 31 | 16 | 16 | 4 | 16 | 16 | – | – | – | – | – | – | – | – | – | – | – | –
3 | LARIVVIRVAR-NH2 (C-terminus assumed) [Bac102] | >83 | 83 | 46 | 11 | 83 | 83 | – | – | – | – | – | – | – | – | – | – | – | –
4 | RGARIVVIRVAR-NH2 (C-terminus assumed) [Bac225] | 31 | 31 | 31 | 16 | 16 | 31 | – | – | – | – | – | – | – | – | – | – | – | –
5 | RIWVIRWR-NH2 (C-terminus assumed) [Bac435] | 16 | 16 | 8 | 4 | 16 | 4 | – | – | – | – | – | – | – | – | – | – | – | –
6 | RIWVIWRR-NH2 (C-terminus assumed) [Bac436] | 8 | 8 | 2 | 2 | 8 | 2 | – | – | – | – | – | – | – | – | – | – | – | –
7 | RLARIVKIRVAR-NH2 (C-terminus assumed) [Bac323] | 63 | 31 | 125 | 31 | 31 | 125 | – | – | – | – | – | – | – | – | – | – | – | –
8 | RLARIVVFRVAR-NH2 (C-terminus assumed) [Bac338] | >250 | >250 | >250 | >250 | >250 | >250 | – | – | – | – | – | – | – | – | – | – | – | –
9 | RLARIVVIRV-NH2 (C-terminus assumed) [Bac103] | 46 | 46 | 23 | 11 | 23 | 46 | – | – | – | – | – | – | – | – | – | – | – | –
10 | RLARIVVIRVA-NH2 (C-terminus assumed) [Bac101] | 31 | 63 | 31 | 16 | 63 | 63 | – | – | – | – | – | – | – | – | – | – | – | –
11 | RLARIVVIRVAG-NH2 (C-terminus assumed) [Bac415] | 63 | 63 | 31 | 31 | 63 | 63 | – | – | – | – | – | – | – | – | – | – | – | –
12 | RLARQVVIRVAR-NH2 (C-terminus assumed) [Bac289] | 8 | 16 | 4 | 2 | 8 | 8 | – | – | – | – | – | – | – | – | – | – | – | –
13 | RLARRVVIRVAR-NH2 (C-terminus assumed) [Bac290] | 31 | 63 | 125 | 16 | 125 | 63 | – | – | – | – | – | – | – | – | – | – | – | –
14 | RLRRIVVIRVAR-NH2 (C-terminus assumed) [Bac252] | 8 | 8 | 8 | 2 | 16 | 8 | – | – | – | – | – | – | – | – | – | – | – | –
15 | RLRRIVVIRVRR-NH2 (C-terminus assumed) [Bac433] | 8 | 8 | 4 | 2 | 31 | 8 | – | – | – | – | – | – | – | – | – | – | – | –
16 | RLWRIVVIRVAR-NH2 (C-terminus assumed) [Bac256] | 8 | 8 | 2 | 0.5 | 8 | 2 | – | – | – | – | – | – | – | – | – | – | – | –
17 | RRARIVVIRVAR-NH2 (C-terminus assumed) [Bac233] | 8 | 8 | 16 | 2 | 8 | 16 | – | – | – | – | – | – | – | – | – | – | – | –
18 | RVLIVIRARRVA-NH2 (C-terminus assumed) [Bac043] | – | – | – | – | – | 23 | 1 | 5254 | 6385 | 3722 | 1189 | 313 | 159 | 67 | 84 | 52 | 3 (Peptides similar to Bac2A resulting in lux values of less than 500 after 240 min.) | 40
19 | VRIRARRVILVA-NH2 (C-terminus assumed) [Bac006] | – | – | – | – | – | 28 | 1 | 3878 | 6829 | 4619 | 2393 | 867 | 469 | 277 | 286 | 306 | 3 (Peptides similar to Bac2A resulting in lux values of less than 500 after 240 min.) | 28
20 | VVIRAAIRRVRL [Bac038] | – | – | – | – | – | – | 5 | 5024 | 7158 | 5307 | 4676 | 4112 | 3323 | 2739 | 2466 | 2576 | 5 (Peptides reducing luminescence (lux) values to between 1500 to 3000 after 240 min.) | –
21 | VVRALRRIIARV [Bac048] | – | – | – | – | – | – | 4 | 5001 | 6505 | 5163 | 4406 | 3824 | 3470 | 3423 | 3268 | 3694 | 6 (Peptides having residual luminescence (lux) values greater than 3000 after 240 min.) | –
